Results: patent US8829029B2, “Dual modulators of 5HT2A and D3 receptors” (Hoffmann-La Roche Inc., priority 2008, dated 2014)

Columns and labels:
[1] = target: human 5-HT2A serotonin receptor (Homo sapiens (Human), UniProt P28223); assay: Radioligand binding ([3H]-ketanserin) to cloned human 5-HT2A receptor expressed in HEK-293 EBNA cells; conditions: membranes of transfected HEK-293 EBNA cells, 1.1 nM [3H]-ketanserin, 1 h at RT
Method: The ability of the compounds to bind to the 5-HT2A, D3 and D2 receptors was determined using radioligand binding to cloned receptors selectively expressed in HEK-293 EBNA cells.
(§1) HEK-293 EBNA cells were transiently transfected with expression plasmids encoding for the human D2 or D3 dopamine- or for the human 5-HT2A serotonin receptor, respectively. The cells were harvested 48 h post-transfection, washed three times with cold PBS and stored at −80° C. prior to use. The pellet was suspended in cold 50 mM Tris-HCl buffer containing 10 mM EDTA (pH 7.4) and homogenized with a Polytron (Kinematica AG, Basel, Switzerland) for 20-30 sec at 12,000 rpm. After centrifugation at 48,000×g for 30 min at 4° C., the pellet was resuspended in cold 10 mM Tris-HCl buffer containing 0.1 mM EDTA (pH 7.4), homogenized, and centrifuged as above. This pellet was further resuspended in a smaller volume of ice cold 10 mM Tris-HCl buffer containing 0.1 mM EDTA (pH 7.4) and homogenized with a Polytron for 20-30 sec at 12,000 rpm. The protein content of this homogenate was determined with the Bio-Rad (Bradford) Protein Assay (Biorad Laboratories GmbH, München, Germany) according to the instructions of the manufacturer using gamma globulin as the standard. This homogenate was stored at −80° C. in aliquots and thawed immediately prior to use.
Aliquots of membrane preparations were thawed at RT, resuspended in assay buffer (D2, D3: 50 mM Tris-HCl, 120 mM NaCl, 5 mM MgCl2, 1 mM EDTA, 5 mM KCl, 1.5 mM CaCl2, pH=7.4; 5-HT2A: 50 mM Tris-HCl, 10 mM MgCl2, 1 mM EGTA, pH=7.4), homogenized with a Polytron for 20-30 sec at 12,000 rpm and adjusted to a final concentration of approximately 7.5 μg protein/well (D2, D3) and 15 μg protein/well (5-HT2A), respectively.
(§2) The binding affinity (Ki) of the compounds was determined using radioligand binding. Membranes were incubated in a total volume of 200 μl with a fixed concentration of radioligand (final concentration approximately 0.7 nM [^3H]-spiperone for D2, 0.5 nM [^3H]-spiperone for D3, and 1.1 nM [^3H]-ketanserin for 5-HT2A) and ten concentrations of test compound in ranging between 10 μM-0.1 nM for 1 h at RT. At the end of the incubation, the reaction mixtures were filtered on to unifilter 96-well white microplates with bonded GF/C filters (Packard BioScience, Zürich, Switzerland; preincubated for 1 h in 0.1% polyethylenimine (PEI) in assay buffer) with a Filtermate 196 harvester (Packard BioScience) and washed 3 times with cold assay buffer. The nonspecific binding was determined with equally composed reaction mixtures in the presence of 10 μM unlabelled spiperone. Per well 45 μl of Microscint 40 (Perkin Elmer, Schwerzenbach, Switzerland) was added, plates for sealed, shaken for 20 min and counted for 3 min on a Topcount Microplate Scintillation Counter (Canberra Packard SA, Zürich, Switzerland) with quenching correction.
(§3) The CPM value for each duplicate of a concentration of competing compound was averaged (y1), then the % specific binding was calculated according to the equation (((y1−non-specific)/(total binding−non-specific))×100). Graphs were plotted with the % specific binding using XLfit, a curve fitting program that iteratively plots the data using Levenburg Marquardt algorithm. The single site competition analysis equation used was y=A+((B−A)/(1+((x/C)^D))), where y is the % specific binding, A is the minimum y, B is the maximum y, C is the IC50, x is the log10 of the concentration of the competing compound and D is the slope of the curve (the Hill Coefficient). From these curves the IC50 (inhibition concentration at which 50% specific binding of the radioligand was displaced) and Hill coefficient were determined. The affinity constant (Ki) was calculated using the Cheng-Prusoff equation Ki=(IC50/1+([L]/Kd), where [L] is the concentration of radioligand and Kd is the dissociation constant of the radioligand at the receptor as determined by the saturation isotherm.

[2] = target: human D3 dopamine receptor (Homo sapiens (Human), UniProt P35462); assay: Radioligand binding ([3H]-spiperone) to cloned human D3 receptor expressed in HEK-293 EBNA cells; conditions: membranes of transfected HEK-293 EBNA cells, 0.5 nM [3H]-spiperone, 1 h at RT
human D3 dopamine receptor, sequence (P35462 whole entry): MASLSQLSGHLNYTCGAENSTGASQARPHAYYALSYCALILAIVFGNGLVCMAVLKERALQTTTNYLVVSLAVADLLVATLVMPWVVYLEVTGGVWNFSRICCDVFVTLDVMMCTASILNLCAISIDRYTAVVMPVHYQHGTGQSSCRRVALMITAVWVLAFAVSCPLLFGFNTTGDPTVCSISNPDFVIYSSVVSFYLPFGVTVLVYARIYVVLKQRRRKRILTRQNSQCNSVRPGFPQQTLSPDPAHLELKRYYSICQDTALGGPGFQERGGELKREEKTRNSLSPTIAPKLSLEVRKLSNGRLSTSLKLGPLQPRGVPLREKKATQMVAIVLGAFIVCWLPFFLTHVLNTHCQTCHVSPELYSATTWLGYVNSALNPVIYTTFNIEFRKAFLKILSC
Method: as §1, with “The pellet was suspended in cold 50 mM Tris-HCl buffer containing 10 mM EDTA (pH 7.4) and homogenized with a Polytron (Kinematica AG, Basel, Switzerland) for 20-30 sec at 12,000 rpm.” left out, “This pellet was further resuspended in a smaller volume of ice cold 10 mM Tris-HCl buffer containing 0.1 mM EDTA (pH 7.4) and homogenized with a Polytron for 20-30 sec at 12,000 rpm.” left out
as §2, §3

Structure (SMILES)	Ki [1] [nM]	Ki [2] [nM]
COc1cc(C(=O)N[C@H]2CC[C@H](CCN3CCC(c4noc5cc(F)ccc45)CC3)CC2)ccn1 [Example 13, N-trans (4-{2-[4-(6-Fluoro-benzo[d]isoxazol-3-yl)-piperidin-1-yl]-ethyl}-cyclohexyl)-2-methoxy-isonicotinamide]	1.62	3.74
O=C(N[C@H]1CC[C@H](CCN2CCC(c3noc4cc(F)ccc34)CC2)CC1)c1ccc(N2CCCCC2)cc1 [Example 14, N-trans (4-{2-[4-(6-Fluoro-benzo[d]isoxazol-3-yl)-piperidin-1-yl]-ethyl}-cyclohexyl)-4-piperidin-1-yl-benzamide]	2.6	8.69
O=C(N[C@H]1CC[C@H](CCN2CCC(c3noc4cc(F)ccc34)CC2)CC1)C1COc2ccccc2O1 (stereo partly drawn) [Example 15, 2,3-Dihydro-benzo[1,4]dioxine-2-carboxylic acid trans (4-{2-[4-(6-fluoro-benzo[d]isoxazol-3-yl)-piperidin-1-yl]-ethyl}-cyclohexyl)-amide]	2.57	12.7
Cc1ccn(CC(=O)N[C@H]2CC[C@H](CCN3CCC(c4noc5cc(F)ccc45)CC3)CC2)n1 [Example 16, N-trans (4-{2-[4-(6-Fluoro-benzo[d]isoxazol-3-yl)-piperidin-1-yl]-ethyl}-cyclohexyl)-2-(3-methyl-pyrazol-1-yl)-acetamide]	2.8	27.6
O=C(N[C@H]1CC[C@H](CCN2CCC(c3noc4cc(F)ccc34)CC2)CC1)c1ccc(-n2cccc2)cc1 [Example 17, N-trans(4-{2-[4-(6-Fluoro-benzo[d]isoxazol-3-yl)-piperidin-1-yl]-ethyl}-cyclohexyl)-4-pyrrol-1-yl-benzamide]	2.45	2.61
O=C(N[C@H]1CC[C@H](CCN2CCC(c3noc4cc(F)ccc34)CC2)CC1)C1(O)CC1 [Example 18, 1-Hydroxy-cyclopropanecarboxylic acid trans (4-{2-[4-(6-fluoro-benzo[d]isoxazol-3-yl)-piperidin-1-yl]-ethyl}-cyclohexyl)-amide]	1.44	5.92
O=C(N[C@H]1CC[C@H](CCN2CCC(c3noc4cc(F)ccc34)CC2)CC1)C1(C(F)(F)F)CCC1 [Example 19, 1-Trifluoromethyl-cyclobutanecarboxylic acid trans (4-{2-[4-(6-fluoro-benzo[d]isoxazol-3-yl)-piperidin-1-yl]-ethyl}-cyclohexyl)-amide]	2.26	7.74
O=C(CC(F)(F)F)N[C@H]1CC[C@H](CCN2CCC(c3noc4cc(F)ccc34)CC2)CC1 [Example 20, 3,3,3-Trifluoro-N-trans (4-{2-[4-(6-fluoro-benzo[d]isoxazol-3-yl)-piperidin-1-yl]-ethyl}-cyclohexyl)-propionamide]	2.78	5.19
COc1cc(CC(=O)N[C@H]2CC[C@H](CCN3CCC(c4noc5cc(F)ccc45)CC3)CC2)cc(OC)c1 [Example 21, 2-(3,5-Dimethoxy-phenyl)-N-trans (4-{2-[4-(6-fluoro-benzo[d]isoxazol-3-yl)-piperidin-1-yl]-ethyl}-cyclohexyl)-acetamide]	2.95	8.77
CC1CN(c2ccc(C(=O)N[C@H]3CC[C@H](CCN4CCC(c5noc6cc(F)ccc56)CC4)CC3)cc2)CC(C)O1 (stereo partly drawn) [Example 22, 4-(2,6-Dimethyl-morpholin-4-yl)-N-trans (4-{2-[4-(6-fluoro-benzo[d]isoxazol-3-yl)-piperidin-1-yl]-ethyl}-cyclohexyl)-benzamide]	21.2	137
CC(=O)N[C@H]1CC[C@H](CCN2CCC(c3noc4ccc(F)cc34)CC2)CC1 [Example 24, N-trans(4-{2-[4-(5-Fluoro-benzo[d]isoxazol-3-yl)-piperidin-1-yl]-ethyl}-cyclohexyl)-acetamide]	46.9	2.44
O=C(N[C@H]1CC[C@H](CCN2CCC(c3noc4ccc(F)cc34)CC2)CC1)c1ccc(N2CCOCC2)cc1 [Example 25, N-trans(4-{2-[4-(5-Fluoro-benzo[d]isoxazol-3-yl)-piperidin-1-yl]-ethyl}-cyclohexyl)-4-morpholin-4-yl-benzamide]	22.3	9.04
O=C(N[C@H]1CC[C@H](CCN2CCC(c3noc4ccc(F)cc34)CC2)CC1)c1ccc(N2CCCCC2)cc1 [Example 27, N-trans(4-{2-[4-(5-Fluoro-benzo[d]isoxazol-3-yl)-piperidin-1-yl]-ethyl}-cyclohexyl)-4-piperidin-1-yl-benzamide]	7	7.7
CC1CN(c2ccc(C(=O)N[C@H]3CC[C@H](CCN4CCC(c5noc6ccc(F)cc56)CC4)CC3)cc2)CC(C)O1 (stereo partly drawn) [Example 28, 4-(2,6-Dimethyl-morpholin-4-yl)-N-trans (4-{2-[4-(5-fluoro-benzo[d]isoxazol-3-yl)-piperidin-1-yl]-ethyl}-cyclohexyl)-benzamide]	99.1	85.8
O=C(N[C@H]1CC[C@H](CCN2CCC(c3noc4ccc(F)cc34)CC2)CC1)c1ccc(N2CCS(=O)(=O)CC2)cc1 [Example 29, 4-(1,1-Dioxo-1,6,4-thiomorpholin-4-yl)-N trans-(4-{2-[4-(5-fluoro-benzo[d]isoxazol-3-yl)-piperidin-1-yl]-ethyl}-cyclohexyl)-benzamide]	12.4	5.94
COCCC(=O)N[C@H]1CC[C@H](CCN2CCC(c3noc4cc(Cl)ccc34)CC2)CC1 [Example 32, N-trans(4-{2-[4-(6-Chloro-benzo[d]isoxazol-3-yl)-piperidin-1-yl]-ethyl}-cyclohexyl)-3-methoxy-propionamide]	16.5	8.5
O=C(N[C@H]1CC[C@H](CCN2CCC(c3noc4cc(Cl)ccc34)CC2)CC1)C(O)C(F)(F)F (stereo partly drawn) [Example 33, N-trans-(4-{2-[4-(6-Chloro-benzo[d]isoxazol-3-yl)-piperidin-1-yl]-ethyl}-cyclohexyl)-3,3,3-trifluoro-2-hydroxy-propionamide]	21.9	11
O=C(CC1CCC2(CC1)OCCO2)N[C@H]1CC[C@H](CCN2CCC(c3noc4cc(Cl)ccc34)CC2)CC1 [Example 36, N-trans (4-{2-[4-(6-Chloro-benzo[d]isoxazol-3-yl)-piperidin-1-yl]-ethyl}-cyclohexyl)-2-(1,4-dioxa-spiro[4.5]dec-8-yl)-acetamide]	8.31	12.2
COC(CC(=O)N[C@H]1CC[C@H](CCN2CCC(c3noc4cc(Cl)ccc34)CC2)CC1)OC [Example 37, N-trans-(4-{2-[4-(6-Chloro-benzo[d]isoxazol-3-yl)-piperidin-1-yl]-ethyl}-cyclohexyl)-3,3-dimethoxy-propionamide]	13.7	9.03
